Results taken from the kinase profiling compilation of Christmann-Franck et al. (2016).

Experiments:
Assay in all cases: KINOMEscan competition binding
Settings in all cases: compound 10.0 µM
[1] = target: ALK (human) (UniProt Q9UM73)
[2] = target: AURKC (human) (UniProt Q9UQB9)
[3] = target: CIT (human) (UniProt O14578)
[4] = target: CLK1 (human) (UniProt P49759)
[5] = target: CLK4 (human) (UniProt Q9HAZ1)
[6] = target: CSNK2A2 (human) (UniProt P19784)
[7] = target: DCLK2 (human) (UniProt Q8N568)
[8] = target: DYRK1B (human) (UniProt Q9Y463)
[9] = tested on: EIF2AK4 KD2 (human), Q9P2K8 [S808G]
[10] = target: FLT4 (human) (UniProt P35916)
[11] = target: GAK (human) (UniProt O14976)
[12] = target: IRAK1 (human) (UniProt P51617)
[13] = target: JAK2 JH1 catalytic (human) (UniProt O60674)
[14] = target: JAK3 JH1 catalytic (human) (UniProt P52333)
[15] = target: MAP2K1 (human) (UniProt Q02750)
[16] = target: MAP3K12 (human) (UniProt Q12852)
[17] = target: MAP3K6 (human) (UniProt O95382)
[18] = target: MAP4K5 (human) (UniProt Q9Y4K4)
[19] = target: MAPK10 (human) (UniProt P53779)
[20] = target: MAPK8 (human) (UniProt P45983)
[21] = target: MAPKAPK2 (human) (UniProt P49137)
[22] = target: MARK3 (human) (UniProt P27448)
[23] = target: MAST1 (human) (UniProt Q9Y2H9)
[24] = target: MYLK2 (human) (UniProt Q9H1R3)
[25] = target: NIM1 (human) (UniProt Q8IY84)
[26] = target: PHKG1 (human) (UniProt Q16816)
[27] = target: PI4KB (human) (UniProt Q9UBF8)
[28] = target: PIK3CB (human) (UniProt P42338)
[29] = target: PIM2 (human) (UniProt Q9P1W9)
[30] = target: PIM3 (human) (UniProt Q86V86)
[31] = target: PRKCE (human) (UniProt Q02156)
[32] = tested on: RET (human), P07949 [M918T]
[33] = target: RIOK2 (human) (UniProt Q9BVS4)
[34] = target: SLK (human) (UniProt Q9H2G2)
[35] = target: SRPK1 (human) (UniProt Q96SB4)
[36] = target: SRPK3 (human) (UniProt Q9UPE1)
[37] = target: STK17A (human) (UniProt Q9UEE5)
[38] = target: STK25 (human) (UniProt O00506)
[39] = target: TEK (human) (UniProt Q02763)
[40] = target: ZAP70 (human) (UniProt P43403)

Chain of IRAK1 (human) (P51617 whole entry, looked up): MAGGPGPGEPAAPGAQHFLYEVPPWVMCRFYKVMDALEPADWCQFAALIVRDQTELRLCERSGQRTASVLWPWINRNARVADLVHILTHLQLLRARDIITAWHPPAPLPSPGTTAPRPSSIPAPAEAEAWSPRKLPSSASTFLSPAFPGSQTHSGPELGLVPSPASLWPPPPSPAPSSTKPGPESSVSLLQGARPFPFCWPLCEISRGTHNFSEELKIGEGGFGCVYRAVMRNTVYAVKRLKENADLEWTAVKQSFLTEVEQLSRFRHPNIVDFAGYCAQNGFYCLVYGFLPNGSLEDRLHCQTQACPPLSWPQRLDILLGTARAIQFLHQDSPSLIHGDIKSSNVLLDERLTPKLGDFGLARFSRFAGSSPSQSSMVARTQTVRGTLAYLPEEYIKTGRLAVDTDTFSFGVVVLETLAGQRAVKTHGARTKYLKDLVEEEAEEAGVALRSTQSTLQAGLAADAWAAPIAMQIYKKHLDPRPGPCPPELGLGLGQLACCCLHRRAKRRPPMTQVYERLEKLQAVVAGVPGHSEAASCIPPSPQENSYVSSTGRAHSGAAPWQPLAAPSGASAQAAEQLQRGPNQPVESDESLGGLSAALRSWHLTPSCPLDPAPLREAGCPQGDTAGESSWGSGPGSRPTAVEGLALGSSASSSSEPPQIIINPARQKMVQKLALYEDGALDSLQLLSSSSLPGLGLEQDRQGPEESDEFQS
Chain of AURKC (human) (Q9UQB9 whole entry, looked up): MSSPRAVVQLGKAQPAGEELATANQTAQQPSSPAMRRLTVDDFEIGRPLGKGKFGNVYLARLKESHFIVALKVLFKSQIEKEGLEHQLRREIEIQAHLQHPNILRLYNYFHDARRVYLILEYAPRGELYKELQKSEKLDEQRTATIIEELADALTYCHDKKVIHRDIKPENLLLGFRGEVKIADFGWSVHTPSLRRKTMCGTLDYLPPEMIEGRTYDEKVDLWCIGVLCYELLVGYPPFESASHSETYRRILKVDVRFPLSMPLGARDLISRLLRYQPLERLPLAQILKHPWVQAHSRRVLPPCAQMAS
Chain of MARK3 (human) (P27448 whole entry, looked up): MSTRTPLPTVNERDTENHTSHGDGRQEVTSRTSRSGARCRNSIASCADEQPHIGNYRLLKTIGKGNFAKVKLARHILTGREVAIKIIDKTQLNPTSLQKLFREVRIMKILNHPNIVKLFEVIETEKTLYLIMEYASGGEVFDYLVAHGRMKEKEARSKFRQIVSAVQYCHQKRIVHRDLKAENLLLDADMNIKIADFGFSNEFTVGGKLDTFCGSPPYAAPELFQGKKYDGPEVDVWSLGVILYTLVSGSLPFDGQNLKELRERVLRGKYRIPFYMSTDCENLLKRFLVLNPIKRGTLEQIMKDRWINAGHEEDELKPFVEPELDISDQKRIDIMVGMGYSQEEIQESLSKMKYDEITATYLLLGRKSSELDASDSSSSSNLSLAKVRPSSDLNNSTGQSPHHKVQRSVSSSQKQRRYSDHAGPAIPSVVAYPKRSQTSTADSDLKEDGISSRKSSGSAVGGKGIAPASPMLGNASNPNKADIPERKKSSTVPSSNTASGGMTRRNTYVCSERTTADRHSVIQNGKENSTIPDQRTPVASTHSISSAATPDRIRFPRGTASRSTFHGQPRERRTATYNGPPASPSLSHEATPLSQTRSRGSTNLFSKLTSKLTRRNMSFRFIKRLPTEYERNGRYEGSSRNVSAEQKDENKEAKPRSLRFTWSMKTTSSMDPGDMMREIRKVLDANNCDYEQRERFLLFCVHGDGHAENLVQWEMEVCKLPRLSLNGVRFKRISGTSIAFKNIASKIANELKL
Chain of PRKCE (human) (Q02156 whole entry, looked up): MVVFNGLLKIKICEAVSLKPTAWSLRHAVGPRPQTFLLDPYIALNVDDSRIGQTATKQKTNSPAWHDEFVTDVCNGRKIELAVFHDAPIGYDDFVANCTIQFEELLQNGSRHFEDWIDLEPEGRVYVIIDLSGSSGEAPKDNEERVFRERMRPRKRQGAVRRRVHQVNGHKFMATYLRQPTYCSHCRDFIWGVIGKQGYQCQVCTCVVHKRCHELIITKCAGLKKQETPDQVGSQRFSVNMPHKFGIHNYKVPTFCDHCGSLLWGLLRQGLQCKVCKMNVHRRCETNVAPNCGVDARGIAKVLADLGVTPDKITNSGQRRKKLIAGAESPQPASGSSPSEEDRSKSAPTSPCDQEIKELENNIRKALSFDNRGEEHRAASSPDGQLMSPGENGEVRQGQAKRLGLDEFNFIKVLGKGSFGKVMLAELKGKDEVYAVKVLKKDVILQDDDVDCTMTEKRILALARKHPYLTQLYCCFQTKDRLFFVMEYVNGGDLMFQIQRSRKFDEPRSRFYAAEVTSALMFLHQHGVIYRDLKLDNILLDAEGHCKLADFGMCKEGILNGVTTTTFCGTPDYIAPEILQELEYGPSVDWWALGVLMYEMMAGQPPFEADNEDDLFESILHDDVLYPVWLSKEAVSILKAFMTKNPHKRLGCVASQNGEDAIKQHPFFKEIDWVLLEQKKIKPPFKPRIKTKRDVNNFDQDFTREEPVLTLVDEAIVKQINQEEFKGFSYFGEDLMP
Chain of MAPKAPK2 (human) (P49137 whole entry, looked up): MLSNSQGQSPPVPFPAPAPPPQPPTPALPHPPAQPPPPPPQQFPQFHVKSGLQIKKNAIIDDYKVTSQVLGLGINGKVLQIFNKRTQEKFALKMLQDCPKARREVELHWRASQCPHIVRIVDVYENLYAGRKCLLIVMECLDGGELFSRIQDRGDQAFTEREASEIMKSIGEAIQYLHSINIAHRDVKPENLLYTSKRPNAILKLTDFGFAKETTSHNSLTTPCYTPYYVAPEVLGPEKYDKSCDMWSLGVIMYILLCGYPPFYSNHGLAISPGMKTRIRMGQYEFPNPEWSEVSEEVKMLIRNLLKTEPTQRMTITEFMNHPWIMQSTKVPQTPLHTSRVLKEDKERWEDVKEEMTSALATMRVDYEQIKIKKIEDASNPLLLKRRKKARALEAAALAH
Chain of CIT (human) (O14578 whole entry, looked up): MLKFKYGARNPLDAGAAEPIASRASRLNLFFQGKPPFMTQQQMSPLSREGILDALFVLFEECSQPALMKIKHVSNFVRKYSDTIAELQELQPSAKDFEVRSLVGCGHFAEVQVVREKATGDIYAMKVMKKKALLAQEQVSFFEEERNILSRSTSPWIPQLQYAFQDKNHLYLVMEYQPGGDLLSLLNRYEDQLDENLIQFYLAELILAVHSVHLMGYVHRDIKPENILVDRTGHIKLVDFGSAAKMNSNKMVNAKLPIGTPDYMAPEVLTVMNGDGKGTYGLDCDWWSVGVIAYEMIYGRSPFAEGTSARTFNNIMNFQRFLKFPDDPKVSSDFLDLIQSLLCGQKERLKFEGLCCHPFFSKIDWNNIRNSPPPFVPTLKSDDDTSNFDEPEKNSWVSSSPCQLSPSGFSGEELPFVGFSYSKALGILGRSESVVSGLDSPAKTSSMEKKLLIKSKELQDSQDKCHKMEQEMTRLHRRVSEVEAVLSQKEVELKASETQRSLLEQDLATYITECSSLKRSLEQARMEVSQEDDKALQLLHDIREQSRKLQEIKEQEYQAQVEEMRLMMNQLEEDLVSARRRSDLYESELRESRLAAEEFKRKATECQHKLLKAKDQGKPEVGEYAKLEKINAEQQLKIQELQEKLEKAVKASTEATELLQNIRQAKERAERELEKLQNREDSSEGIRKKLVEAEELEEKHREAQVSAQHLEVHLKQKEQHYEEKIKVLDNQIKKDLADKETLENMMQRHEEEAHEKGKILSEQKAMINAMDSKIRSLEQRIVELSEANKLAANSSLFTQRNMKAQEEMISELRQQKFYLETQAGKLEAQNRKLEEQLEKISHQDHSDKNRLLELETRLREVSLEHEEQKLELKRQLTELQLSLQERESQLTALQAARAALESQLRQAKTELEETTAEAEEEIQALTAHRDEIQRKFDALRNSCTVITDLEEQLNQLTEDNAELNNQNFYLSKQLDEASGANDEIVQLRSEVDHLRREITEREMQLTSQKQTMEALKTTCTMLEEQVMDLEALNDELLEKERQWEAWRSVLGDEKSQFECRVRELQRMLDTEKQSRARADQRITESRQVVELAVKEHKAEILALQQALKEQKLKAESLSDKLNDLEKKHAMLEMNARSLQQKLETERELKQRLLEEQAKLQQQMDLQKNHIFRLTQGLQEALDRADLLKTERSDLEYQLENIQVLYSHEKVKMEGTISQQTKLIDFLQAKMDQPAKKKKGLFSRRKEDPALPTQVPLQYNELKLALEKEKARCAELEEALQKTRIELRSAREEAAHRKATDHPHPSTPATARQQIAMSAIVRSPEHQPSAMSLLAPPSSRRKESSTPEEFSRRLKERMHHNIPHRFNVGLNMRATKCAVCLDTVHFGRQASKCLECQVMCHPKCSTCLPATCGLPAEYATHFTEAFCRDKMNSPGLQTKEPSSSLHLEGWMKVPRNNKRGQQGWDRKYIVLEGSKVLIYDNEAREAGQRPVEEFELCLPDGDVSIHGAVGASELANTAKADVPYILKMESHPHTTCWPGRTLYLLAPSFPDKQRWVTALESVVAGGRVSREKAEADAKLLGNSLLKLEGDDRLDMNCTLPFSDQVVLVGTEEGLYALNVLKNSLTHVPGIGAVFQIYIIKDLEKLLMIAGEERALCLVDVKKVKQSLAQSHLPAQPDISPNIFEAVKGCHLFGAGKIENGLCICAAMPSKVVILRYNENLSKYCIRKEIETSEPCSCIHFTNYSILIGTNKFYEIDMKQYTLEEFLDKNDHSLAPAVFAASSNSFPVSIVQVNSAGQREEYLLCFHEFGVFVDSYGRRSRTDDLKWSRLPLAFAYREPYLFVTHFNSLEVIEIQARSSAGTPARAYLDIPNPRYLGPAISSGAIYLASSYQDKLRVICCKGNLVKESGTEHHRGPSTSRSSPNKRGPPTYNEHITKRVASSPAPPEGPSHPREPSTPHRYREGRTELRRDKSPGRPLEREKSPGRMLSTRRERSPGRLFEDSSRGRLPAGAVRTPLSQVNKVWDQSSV

Compound: COc1ccc(CNC(=O)Nc2ncc([N+](=O)[O-])s2)cc1
- kinase still bound, per cent of control [1]: 100%
- kinase still bound, per cent of control [2]: 92%
- kinase still bound, per cent of control [3]: 89%
- kinase still bound, per cent of control [4]: 62%
- kinase still bound, per cent of control [5]: 87%
- kinase still bound, per cent of control [6]: 100%
- kinase still bound, per cent of control [7]: 100%
- kinase still bound, per cent of control [8]: 100%
- kinase still bound, per cent of control [9]: 100%
- kinase still bound, per cent of control [10]: 100%
- kinase still bound, per cent of control [11]: 98%
- kinase still bound, per cent of control [12]: 100%
- kinase still bound, per cent of control [13]: 100%
- kinase still bound, per cent of control [14]: 100%
- kinase still bound, per cent of control [15]: 100%
- kinase still bound, per cent of control [16]: 80%
- kinase still bound, per cent of control [17]: 85%
- kinase still bound, per cent of control [18]: 100%
- kinase still bound, per cent of control [19]: 53%
- kinase still bound, per cent of control [20]: 100%
- kinase still bound, per cent of control [21]: 94%
- kinase still bound, per cent of control [22]: 100%
- kinase still bound, per cent of control [23]: 98%
- kinase still bound, per cent of control [24]: 93%
- kinase still bound, per cent of control [25]: 100%
- kinase still bound, per cent of control [26]: 97%
- kinase still bound, per cent of control [27]: 100%
- kinase still bound, per cent of control [28]: 100%
- kinase still bound, per cent of control [29]: 76%
- kinase still bound, per cent of control [30]: 83%
- kinase still bound, per cent of control [31]: 100%
- kinase still bound, per cent of control [32]: 100%
- kinase still bound, per cent of control [33]: 23%
- kinase still bound, per cent of control [34]: 100%
- kinase still bound, per cent of control [35]: 100%
- kinase still bound, per cent of control [36]: 100%
- kinase still bound, per cent of control [37]: 80%
- kinase still bound, per cent of control [38]: 100%
- kinase still bound, per cent of control [39]: 78%
- kinase still bound, per cent of control [40]: 100%
